In patent US20120082684A1, “DIAGNOSIS AND TREATMENT OF CELL PROLIFERATION AND DIFFERENTIATION DISORDERS BASED ON THE FMN2 GENE” (UNIVERSITY COURT OF THE UNIVERSITY OF DUNDEE, priority 2009, published 2012):

Assays:
[1] = system: NARF2 cells; assay: siRNA knock-down in NARF2 cells, protein levels by blot (FIG. 10); format: cell-based, human; settings: 5 nM siRNA, 48 hours, with or without 24 hours IPTG
Description: FIG. 10. siRNA approach for FMN2. NARF2 cells were treated with Control, DNA-PK, or FMN2 siRNA and harvested 48 hours with or without 24 hours IPTG induction.
siRNA duplex oligonucleotides were synthesised by MWG and transfected using Interferin (Polyplus) as per manufacturers instruction. In brief, cells were plated the day before transfection at the concentration of 2×10^5 cells per well in 6 well plates. The following day, cells were transfected with the final concentration of 5 nM of siRNA oligonucleotides in fresh media, final volume of 2.2 ml. Cells were incubated for additional 48 hours prior to harvesting. IPTG was added for 24 hours unless otherwise stated. siRNA sequences were described here (Control: CAGUCGCGUUUGCGACUGG, FMN2-GUAUACCAGGUCUCCUCAA). MG132 was purchased from Merck Chemicals and used at the final concentration of 50 μM.
To analyse the function of the FMN2 protein in cells, we designed five siRNAs to suppress FMN2 expression. […] (FIG. 10a). […] In contrast, siRNA knock-down of DNA-PK causes a decrease in the levels of both puma and p21 (FIG. 10b).
(§1) siRNA experiments. siRNA duplex oligo ribonucleotides were synthesised by MWG and transfected using Interferin (Polyplus) as per manufacturers instruction. In brief, cells were plated the day before transfection at the concentration of 2×10^5 cells per well in 6 well plates. The following day, cells were transfected with the final concentration of 5 nM of siRNA oligoribonucleotides in fresh media, final volume of 2.2 ml. Cells were incubated for a further 48 hours prior to harvesting. IPTG was added for 24 hours unless otherwise stated. siRNA sequences are described here (Control: 5′-CAGUCGCGUUUGCGACUGG-3′, FMN2-5′-GUAUACCAGGUCUCCUCAA-3′, PA28γ-5′-GAAUCAAUAUGUCACUCUA-3′, Skp2-5′-ACUCAAGUCCAGCCAUAAG-3′).).

[2] = system: NARF2 cells; assay: Rescue of FMN2 depletion by co-transfection of siRNAs, Western blot (FIG. 14); format: cell-based, human; settings: co-transfection of both PA28γ siRNA and Skp2 siRNA with FMN2 siRNA, with/without p14ARF induction
Description: as §1
FIG. 14. […] Detection of protein levels for endogenous FMN2, Skp2, PA28G, p21, p14ARF and Actin following transfection of NARF2 cells using either siRNAs for FMN2 (see FIG. 15A for location of siRNA target sequence), PA28γ, Skp2 and control (Control) with/without p14ARF induction (+/blank). An equivalent amount of NARF2 extract was loaded for each lane and the proteins separated by SDS PAGE, electroblotted and probed both with a monoclonal anti-PA28γ and polyclonal anti-FMN2, anti-Skp2, anti-p21, anti-p14ARF and with anti-Actin as a loading control.

Substance | FMN2 expression after siRNA [1] | effect on Hdm2 [1] | effect on p53 [1] | p21 level [1] | puma level [1] | rescue of p21 inactivation following FMN2 depletion [2]
5′-GUAUACCAGGUCUCCUCAA-3′ [FMN2 siRNA] | successful in suppressing FMN2 expression | didn't see any effect | didn't see any effect | severely reduced | does not affect puma levels | 
5′-ACUCAAGUCCAGCCAUAAG-3′ [Skp2 siRNA] |  |  |  |  |  | partially rescued
5′-GAAUCAAUAUGUCACUCUA-3′ [PA28γ siRNA] |  |  |  |  |  | partially rescued
